Measurements taken from publication PMC10656235, “Reversible and irreversible inhibitors of coronavirus Nsp15 endoribonuclease” (The Journal of Biological Chemistry, 2023).
Where “and” joins values, the source holds several entries; their conditions need not be identical. Equal values may be shown once. Entries after “also recorded” stand apart in the source; their conditions may differ. Read-outs that look alike come from different tables or passages of the source.

Key:
SARS-CoV-2 Nsp15 [1] = molecular target: T1, SARS-CoV-2 Nsp15 (Severe acute respiratory syndrome coronavirus 2, UniProt P0DTD1)
SARS-CoV-2 Nsp15 [2] = molecular target: T1, SARS-CoV-2 Nsp15; test: biochemical; assay type: biochemical
SARS-CoV-2 Nsp15 [3] = molecular target: T1, SARS-CoV-2 Nsp15; test: Nsp15 native RNA cleavage assay (denaturing PAGE, SYBR Gold); assay type: biochemical
SARS-CoV-1 Nsp15 = SARS-CoV-1 Nsp15 (Severe acute respiratory syndrome coronavirus, UniProt P0C6X7); assay type: biochemical
SARS-CoV-2 Nsp15 [4] = molecular target: T1, SARS-CoV-2 Nsp15; test: FRET assay with nonionic detergent (colloidal aggregate test); assay type: biochemical; settings: 0.01% Triton-X or CHAPS
SARS-CoV-2 = test: microbe, parasite or virus in culture; assay type: cell-based; settings: for Viral titers at a single subtoxic concentration: MOI = 0.1, 24 h postinfection, vs DMSO; for Selectivity index: from CC50 and cellular IC50 in Vero CCL-81 cells
SARS-CoV-2 Nsp15 [5] = molecular target: T1, SARS-CoV-2 Nsp15; test: Reversibility: reaction progress after dilution of preincubated enzyme-inhibitor complex; assay type: biochemical; settings: 60 min preincubation, 1:50 dilution
SARS-CoV-2 Nsp15 [6] = molecular target: T1, SARS-CoV-2 Nsp15; test: Nsp15 FRET-based activity assay; assay type: biochemical; settings: for Nsp15 inhibition with 5′FAM and 5′Cy5 substrates and quenching: compounds at 25 μM and 50 μM
Calu-3 cells = system: Calu-3 cells; parameters: method as in PMID 33886614; settings: cited from earlier work
[7] = Cell cytotoxicity assay (CellTiter-Glo); settings: African green monkey, CC50, 24 h
MERS Nsp15 = MERS Nsp15 (Middle East respiratory syndrome-related coronavirus, UniProt K9N7C7); assay type: biochemical
MERS Nsp15, sequence (K9N7C7 6433-6775 limits assumed): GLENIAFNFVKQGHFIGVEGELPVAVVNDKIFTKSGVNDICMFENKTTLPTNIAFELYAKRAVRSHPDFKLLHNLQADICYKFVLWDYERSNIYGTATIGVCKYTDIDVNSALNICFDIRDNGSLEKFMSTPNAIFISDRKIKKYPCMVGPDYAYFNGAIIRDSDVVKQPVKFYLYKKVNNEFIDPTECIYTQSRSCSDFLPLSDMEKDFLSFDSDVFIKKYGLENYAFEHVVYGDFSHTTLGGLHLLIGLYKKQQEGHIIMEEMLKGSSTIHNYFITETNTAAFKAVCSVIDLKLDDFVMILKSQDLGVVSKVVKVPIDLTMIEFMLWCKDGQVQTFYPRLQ

in vitro = settings: African green monkey
SARS-CoV-2 Nsp15 [8] = molecular target: T1, SARS-CoV-2 Nsp15; test: Effect of DTT on compound inhibition of Nsp15; assay type: biochemical; settings: 10 mM vs 1 mM DTT
SARS-CoV-2 Nsp15 [9] = molecular target: T1, SARS-CoV-2 Nsp15; test: MALDI-TOF mass spectrometry of Nsp15 preincubated with compound; settings: preincubation with fivefold molar excess of compound
[10] = extra sum-of-squares F test, highest inhibitor dose
[11] = Severe acute respiratory syndrome coronavirus 2, 24 h, read-out: IC50, viral inhibition, Vero CCL-81 cells, MOI = 0.1, 24 h infection
[12] = read-out: IC50, viral inhibition, Vero CCL-81 cells, MOI = 0.1, 24 h infection
[13] = RNA substrate titration 0 to 10 µM
[14] = 31-nt single rU RNA, 1 h at 37 °C
[15] = IC50, Nsp15 activity, FRET assay, Nsp15 1 ng/μl, ~12 min at 37 °C

Row | Compound | Ki (SARS-CoV-2 Nsp15 [2]) [µM] | Vmax diff. vs DMSO (SARS-CoV-2 Nsp15 [2]; [10]) | Change of Nsp15 activity with inhibitor when detergent is present (SARS-CoV-2 Nsp15 [4]) | Viral titers at a single subtoxic concentration (SARS-CoV-2; Vero CCL-81 cells) | Reversibility of inhibition (SARS-CoV-2 Nsp15 [5]) | Nsp15 inhibition with 5′FAM and 5′Cy5 substrates and quenching (SARS-CoV-2 Nsp15 [6]) | Kinetic mechanism / predicted type of inhibition (SARS-CoV-2 Nsp15 [2]; [13]) | Km diff. vs DMSO (SARS-CoV-2 Nsp15 [2]; [10]) | Inhibition of native RNA substrate cleavage (SARS-CoV-2 Nsp15 [3]; [14]) | CC50 at 24 h ([7]; Fig. S15) [µM] | Inhibition of MERS Nsp15 (MERS Nsp15) | IC50 (SARS-CoV-2 Nsp15 [6]; [15]) | also measured
1 | 5′-FAM-CAACUAAACGAAC-BHQ1-3′ [RNA2] |  |  |  |  |  |  |  |  |  |  |  |  | Vmax (SARS-CoV-2 Nsp15 [1]): ~0.3 µM/min; Km (SARS-CoV-2 Nsp15 [1]; read-out: Km of substrate): ~3 µM
2 | Oc1c(Cl)cc(Cl)c(Cl)c1Cc1c(O)c(Cl)cc(Cl)c1Cl [hexachlorophene, reference compound] | 1.23 ± 0.3 | Yes | increase in Nsp15 activity | significantly reduced viral titers | Nsp15 activity was restored | inhibited Nsp15 using either substrate, without appreciable quenching |  |  |  |  |  |  | Kinetic mechanism / predicted type of inhibition (SARS-CoV-2 Nsp15 [2]): mixed mechanisms of inhibition; Km diff. vs DMSO (SARS-CoV-2 Nsp15 [2]): Yes; Vmax (best-fit) (SARS-CoV-2 Nsp15 [2]; inhibitor 3µM): 0.24 µM/min; Vmax (best-fit) (SARS-CoV-2 Nsp15 [2]; inhibitor 6µM): 0.19 µM/min; Kinetic mechanism / predicted type of inhibition (SARS-CoV-2 Nsp15 [2]; listed as Hexachlorophene): Mixed; Inhibition of native RNA substrate cleavage (SARS-CoV-2 Nsp15 [3]): dose-dependent effects; Inhibition of SARS-CoV-1 Nsp15 (SARS-CoV-1 Nsp15): less potent; IC50 (SARS-CoV-2; [11]): 0.91 ± 0.044 µM; IC50 (SARS-CoV-2; [12]): ~1 µM; IC50 (SARS-CoV-2 Nsp15 [6]; IC50, Nsp15 activity): ~1 µM and 1.6 µM and 1 to 2 µM
3 | Exebryl-1 |  |  |  |  |  |  |  |  |  |  |  |  | EC50 (Calu-3 cells): ~65 µM
4 | CC(=O)Nc1ccc(NS(=O)(=O)c2ccc3c(c2)C(=O)c2ccccc2C3=O)cc1 [CID5220994] | 72.9 ± 11.6 | No | higher increase in activity | not statistically different from the control | Nsp15 activity was restored | inhibited Nsp15 using either substrate, without appreciable quenching | competitive with substrate | Yes | dose-dependent effects | 15 to 42 | only modest effects | ~50 µM and 50.9 µM | Vmax (best-fit) (SARS-CoV-2 Nsp15 [2]; inhibitor 50µM): 0.31 µM/min; Vmax (best-fit) (SARS-CoV-2 Nsp15 [2]; inhibitor 100µM): 0.28 µM/min
5 | O=C(N/N=C/c1ccccc1O)c1ccc(O)c(O)c1 [CID5266986] | 64.9 ± 16.9 | Yes | increase in Nsp15 activity | not statistically different from the control | Nsp15 activity was restored | inhibited Nsp15 using either substrate, without appreciable quenching | mixed mechanisms of inhibition | Yes | dose-dependent effects | 15 to 42 | only modest effects | ~78 µM and 78 µM | Vmax (best-fit) (SARS-CoV-2 Nsp15 [2]; inhibitor 125µM): 0.22 µM/min; Vmax (best-fit) (SARS-CoV-2 Nsp15 [2]; inhibitor 175µM): 0.21 µM/min
6 | Oc1ccc2ccccc2c1SSc1c(O)ccc2ccccc12 [IPA-3, reference compound] |  | Yes | increase in Nsp15 activity | significantly reduced viral titers | irreversible | inhibited Nsp15 using either substrate, without appreciable quenching | noncompetitive | No | dose-dependent effects |  | only modest effects; also recorded: reduced effect |  | CC50 at 24 h (in vitro): 43 ± 4.8 µM; Ki (SARS-CoV-2 Nsp15 [2]; fit to Michaelis-Menten inhibition models, read-out: Computed Ki ± SE): 10.8 ± 0.87 µM; Vmax (best-fit) (SARS-CoV-2 Nsp15 [2]; inhibitor 5µM): 0.23 µM/min; Vmax (best-fit) (SARS-CoV-2 Nsp15 [2]; inhibitor 20µM): 0.11 µM/min; Inhibition of SARS-CoV-1 Nsp15 (SARS-CoV-1 Nsp15): equal potency; Effect of excess DTT on inhibition (SARS-CoV-2 Nsp15 [8]): excess DTT nearly completely reversed inhibition; IC50 (SARS-CoV-2; Severe acute respiratory syndrome coronavirus 2, 24 h, Vero CCL-81 cells, MOI = 0.1, 24 h infection, read-out: IC50, viral inhibition): 8.5 ± 1.1 µM; IC50 (SARS-CoV-2; Vero CCL-81 cells, MOI = 0.1, 24 h infection, read-out: IC50, viral inhibition): 10 µM; Selectivity index (SARS-CoV-2): ~5; Peak shift of Nsp15 versus apoprotein (SARS-CoV-2 Nsp15 [9]): ~333 Da; IC50 (SARS-CoV-2 Nsp15 [6]; FRET assay, Nsp15 1 ng/μl, ~12 min at 37 °C, read-out: IC50, Nsp15 activity): ~7 µM and 6.8 µM
7 | Nc1c(S(=O)(=O)O)cc(Nc2ccc(Nc3nc(Cl)nc(Nc4cccc(S(=O)(=O)O)c4)n3)c(S(=O)(=O)O)c2)c2c1C(=O)c1ccccc1C2=O [Reactive Blue 2, reference compound] |  |  |  |  |  | inhibited Nsp15 using either substrate, without appreciable quenching |  |  | produced a fluorescent artifact |  |  |  | 
8 | CC1(C)CCC2=C(O1)c1ccccc1C(=O)C2=O [β-lapachone, reference compound] |  |  |  |  |  | inhibited Nsp15 using either substrate, without appreciable quenching |  |  |  |  |  |  | 
9 | CCC(CC)COC(=O)[C@H](C)N[P@](=O)(OC[C@H]1O[C@@](C#N)(c2ccc3c(N)ncnn23)[C@H](O)[C@@H]1O)Oc1ccccc1 [remdesivir] |  |  |  | significantly reduced viral titers |  |  |  |  |  |  |  |  | 
10 | O=C1/C(=C/c2cc([N+](=O)[O-])cc(Br)c2O)SC(=S)N1Cc1ccccc1 [CID5675221] | 6.71 ± 2.31 | Yes | increase in Nsp15 activity | significantly reduced viral titers | Nsp15 activity was restored | inhibited Nsp15 using either substrate, without appreciable quenching | mixed mechanisms of inhibition | Yes | dose-dependent effects | > 240 |  | ~20 µM and 20.7 µM | Vmax (best-fit) (SARS-CoV-2 Nsp15 [2]; inhibitor 15µM): 0.21 µM/min; Vmax (best-fit) (SARS-CoV-2 Nsp15 [2]; inhibitor 30µM): 0.17 µM/min; CC50 at 24 h ([7]; measured in parallel with viral inhibition, Fig. 6): 290 ± 28 µM; IC50 (SARS-CoV-2; [11]): 19 ± 3.9 µM; Selectivity index (SARS-CoV-2): ~15; IC50 (SARS-CoV-2; [12]): ~20 µM and < 20 µM
